The values that follow come from patent US12582706B2, “Tolerogenic antigen presenting cells” (Cell4Cure AB, priority 2019, dated 2026).

The test system of assay [1] is DCs. Kind of assay: DC expression of CD103 (flow cytometry). To be noted: Example 13, FIG. 13(E); compared to control DCs. The assay is classed as cell-based, human. On the procedure:
(§1) CD14^+ monocytes were cultured at 1.25×10^6 cells/mi for 7 days in GMP DC Medium (CellGenix, Freiburg, Germany) containing HEPES, GlutaMAX and Penicillin-Streptomycin solution (Thermo Fisher, Waltham, MA) in the presence of granulocyte-macrophage colony-stimulating factor (GM-CSF; 100 ng/ml; PeproTech, London, UK) and interleukin-4 (IL-4; 100 ng/ml; PeproTech). Cells were replenished on day 3 with fresh medium and cytokines. […]
(§2) Cell surface expression was investigated using the following fluorescently labeled antibodies: CD11c (B-Ly6), CD83 (HB15e), CD86 (BU63), ILT3 (ZM4.1), CD141 (M80), GARP (7611), CD103 (B-Ly7), MERTK (590H11G1E3), BTLA (J168-540), CD49b (P1E6-05), HLA-G (87G), LAP (FNLAP), from BD Biosciences (Franklin Lakes, NJ), BioLegend (San Diego, CA) and Thermo Fisher. DCs were washed and resuspended in staining buffer (phosphate-buffered saline supplemented with 0.5% BSA and 2 mM EDTA) and incubated with antibody for 20 min followed by washing before acquisition on a MACSQuant 10 flow cytometer (Miltenyi Biotec) and analyzed using FlowJo software (BD Biosciences). […]

Assay [2] concerns DCs. Kind of assay: DC expression of CD83 (flow cytometry). The format is cell-based, human. Conditions: Example 13, FIG. 13(A); C1 10 nM, TGFbeta 10 ng/ml, RA 2 uM; compared to control DCs. On the procedure:
as §1, §2
A general note: A flow cytometer gives signals particle by particle.

The test system of assay [3] is DCs. Kind of assay: DC expression of CD86 (flow cytometry). The assay is classed as cell-based, human. On the procedure:
as §1, §2

Assay [4] relates to DCs. Kind of assay: DC expression of ILT3 (flow cytometry). The format is cell-based, human. To be noted: Example 13, FIG. 13(C); compared to control DCs. On the procedure:
as §1, §2

In a further assay the test system is T cells. Conditions: Bakdash et al, 2015; cited from earlier work.

Take `CCN(C(=O)c1c(O)c2c(Cl)cccc2n(C)c1=O)c1ccccc1` [AhR agonist, N-ethyl-N-phenyl-5-chloro-1,2-dihydro-4-hydroxy-1-methyl-2-oxo-quinoline-3-carboxamide]: the “CD103 expression (MFI) on DCs” value in the assay on DCs [1] is recorded as “higher expression of CD103”. Further, the “CD83 expression (MFI) on DCs” value in the assay on DCs [2] is listed as “lower expression”. Besides, the “CD86 expression (MFI) on DCs” value in the assay on DCs [3] (Example 13, FIG. 13(B), compared to control DCs) is reported as “lower expression”.
As to `CC1=C(/C=C/C(C)=C/C=C/C(C)=C/C(=O)O)C(C)(C)CCC1` [RA, all-trans retinoic acid], the “CD86 expression (MFI) on DCs” value with DCs [3] (FIG. 2(B), whether or not stimulated with LPS, compared to corresponding control DCs) is on record as “no resistance to upregulate CD86”. The “ILT3 expression (MFI) on DCs” value with DCs [4] is on record as “higher expression of ILT3”. Besides, in the assay on T cells, the “differentiation of Treg cells” value is on record as “enhance the differentiation of Foxp3^+ inducible as well as IL-10 producing Treg cells” and the “gut-homing specificity in T cells” value was “induce gut-homing specificity in T cells”.
